Test system: mouse Nph-OPCs
Experiment: Cell proliferation as number of Hoechst-labeled nuclei
Format: cell-based
Conditions: 1 µM; n = 3 in triplicate wells; DMSO: 522 ± 126
Description: To determine the effects of ROCK inhibition on OPCs, we developed a high-content image morphological analysis of OPC differentiation using mouse embryonic neural progenitor-derived OPCs (Nph-OPCs). Neural progenitors grow as nonadherent spheroids known as neurospheres (Nph; [Chojnacki & Weiss, 2008]; [Tropepe et al., 1999]), which are considered to be a mixed population of neural stem cells and progenitors of the CNS ([Rao, 1999]; [Zhou & Chiang, 1998]). These cells have been previously used in multiple published studies for the generation of high-yield, high-purity cultures of OPCs from rodents ([Calaora et al., 2001]; [[…] al., 1997]; [Pedraza et al., 2008]). After 24 hr of plating on PDL-coated tissue culture plastic, Nph-OPCs were treated as indicated with differentiation stimuli and further incubated for 72 hr. […] Four images per well were analyzed using a neurite outgrowth module (Molecular Devices, Sunnyvale, CA). We quantified the number of branches and total outgrowth per cell (Figure 1). […] Additionally, nuclear staining by Hoechst allowed the accurate association of branches and processes to their corresponding cell bodies and permitted quantification of total cell numbers in each well. […]

C[C@@H](N)[C@H]1CC[C@H](C(=O)Nc2ccncc2)CC1.Cl.Cl [Y0503, trans-4-[(1 R)-1-aminoethyl]-N-4-pyridinylcyclohexanecarboxamide dihydrochloride]
Number of Hoechst-labeled nuclei: 625 ± 88 cells/well

From article PMC4189421, “Induction of Oligodendrocyte Differentiation and In Vitro Myelination by Inhibition of Rho-Associated Kinase” (ASN NEURO, 2014)
